Test results reported in article PMC11672637, “7-O-Carboxylic Acid-Substituted 3-O-Alkyl Difluoroquercetin; An Aztreonam-Potentiating Agent Against Carbapenemase-Producing Pseudomonas aeruginosa Through Simultaneous Inhibition of Metallo-β-Lactamase and Efflux Pump” (Antibiotics, 2024).
Like-named read-outs stand apart in the source and are kept apart here.

Tests used:
Type in all cases: cell-based, P. aeruginosa
PA-016, blaIMP = assay: MIC / checkerboard with ATM; conditions: for MIC: Pseudomonas aeruginosa, read-out: MIC of ATM with 5, PA-016
PA-037, blaIMP/NDM = assay: MIC / checkerboard with ATM; conditions: for MIC: Pseudomonas aeruginosa, read-out: MIC of ATM with 5, PA-037
PA-040, blaNDM = assay: MIC / checkerboard with ATM; conditions: for MIC: Pseudomonas aeruginosa, read-out: MIC of ATM with 5, PA-040
PA-041, blaNDM = assay: MIC / checkerboard with ATM; conditions: for MIC: Pseudomonas aeruginosa, read-out: MIC of ATM with 5, PA-041
PA-038, blaNDM = assay: MIC / checkerboard with ATM; conditions: for MIC: Pseudomonas aeruginosa, read-out: MIC of ATM with 5, PA-038
PA-009, blaGES = assay: MIC / checkerboard with ATM; conditions: for MIC: Pseudomonas aeruginosa, read-out: MIC of ATM with 5, PA-009
PA-002, blaIMP = assay: Time–kill assay; conditions: for Log CFU/mL, ATM + 5: 24 h
Protocol: (§1) Aliquots (50 μL) were taken from the incubation mixture at regular time intervals (t = 0, 3, 6, and 24 h), serially diluted in 0.85% NaCl solution, and plated on BAP. Bacterial colonies were counted, and the data are presented as the means of at least three independent experiments.

PA-003, blaVIM = assay: Time–kill assay; conditions: ATM 1/2 MIC + 5 at 8 mg/L
Protocol: as §1

CC(C)(C)CCOc1c(-c2ccc(F)c(F)c2)oc2cc(OCC(=O)O)cc(O)c2c1=O [Compound 5, 2-((2-(3,4-Difluorophenyl)-3-(3,3-dimethylbutoxy)-5-hydroxy-4-oxo-4H-chromen-7-yl)oxy)acetic Acid]
Activity (FICI class) (PA-016, blaIMP; PA-016): S (S (Synergy, FICI ≤ 0.5)) | Concentrations of ATM and 5 at lowest FICI (ATM/5) (PA-016, blaIMP; PA-016): 8/8 | Lowest FICI (ATM/5) (PA-016, blaIMP; PA-016): 0.27 | Minimum concentration of 5 to make sensitive to ATM (PA-016, blaIMP; PA-016): 8 mg/L | Susceptibility to ATM (PA-016, blaIMP; PA-016, ATM/5): S (S (sensitive, MIC ≤ 8 mg/L)) | FD (fold decrease in MIC of ATM with 5) (PA-016, blaIMP; PA-016, lowest-FICI combination): 4 | MIC (PA-016, blaIMP; 5 at 1 mg/L): 32 µg/mL | MIC (PA-016, blaIMP; 5 at 2 mg/L): 16 µg/mL | MIC (PA-016, blaIMP; 5 at 4 mg/L): 16 µg/mL | MIC (PA-016, blaIMP; 5 at 8 mg/L): 8 µg/mL | MIC (PA-016, blaIMP; 5 at 16 mg/L): 8 µg/mL | MIC (PA-016, blaIMP; 5 at 32 mg/L): 4 µg/mL | MIC (PA-016, blaIMP; 5 at 64 mg/L): 4 µg/mL | Activity (FICI class) (PA-037, blaIMP/NDM; PA-037): S (S (Synergy, FICI ≤ 0.5)) | Concentrations of ATM and 5 at lowest FICI (ATM/5) (PA-037, blaIMP/NDM; PA-037): 1/8 | Lowest FICI (ATM/5) (PA-037, blaIMP/NDM; PA-037): 0.27 | Susceptibility to ATM (PA-037, blaIMP/NDM; PA-037, ATM/5): S (S (sensitive, MIC ≤ 8 mg/L)) | FD (fold decrease in MIC of ATM with 5) (PA-037, blaIMP/NDM; PA-037, lowest-FICI combination): 4 | MIC (PA-037, blaIMP/NDM; 5 at 1 mg/L): 2 µg/mL | MIC (PA-037, blaIMP/NDM; 5 at 2 mg/L): 2 µg/mL | MIC (PA-037, blaIMP/NDM; 5 at 4 mg/L): 2 µg/mL | MIC (PA-037, blaIMP/NDM; 5 at 8 mg/L): 1 µg/mL | MIC (PA-037, blaIMP/NDM; 5 at 16 mg/L): 1 µg/mL | MIC (PA-037, blaIMP/NDM; 5 at 32 mg/L): 1 µg/mL | MIC (PA-037, blaIMP/NDM; 5 at 64 mg/L): 1 µg/mL | Activity (FICI class) (PA-040, blaNDM; PA-040): S (S (Synergy, FICI ≤ 0.5)) | Concentrations of ATM and 5 at lowest FICI (ATM/5) (PA-040, blaNDM; PA-040): 1/32 | Lowest FICI (ATM/5) (PA-040, blaNDM; PA-040): 0.31 | Susceptibility to ATM (PA-040, blaNDM; PA-040, ATM/5): S (S (sensitive, MIC ≤ 8 mg/L)) | FD (fold decrease in MIC of ATM with 5) (PA-040, blaNDM; PA-040, lowest-FICI combination): 4 | MIC (PA-040, blaNDM; 5 at 1 mg/L): 4 µg/mL | MIC (PA-040, blaNDM; 5 at 2 mg/L): 4 µg/mL | MIC (PA-040, blaNDM; 5 at 4 mg/L): 2 µg/mL | MIC (PA-040, blaNDM; 5 at 8 mg/L): 2 µg/mL | MIC (PA-040, blaNDM; 5 at 16 mg/L): 2 µg/mL | MIC (PA-040, blaNDM; 5 at 32 mg/L): 1 µg/mL | MIC (PA-040, blaNDM; 5 at 64 mg/L): 1 µg/mL | Activity (FICI class) (PA-041, blaNDM; PA-041): S (S (Synergy, FICI ≤ 0.5)) | Concentrations of ATM and 5 at lowest FICI (ATM/5) (PA-041, blaNDM; PA-041): 1/32 | Lowest FICI (ATM/5) (PA-041, blaNDM; PA-041): 0.31 | Susceptibility to ATM (PA-041, blaNDM; PA-041, ATM/5): S (S (sensitive, MIC ≤ 8 mg/L)) | FD (fold decrease in MIC of ATM with 5) (PA-041, blaNDM; PA-041, lowest-FICI combination): 4 | MIC (PA-041, blaNDM; 5 at 1 mg/L): 4 µg/mL | MIC (PA-041, blaNDM; 5 at 2 mg/L): 4 µg/mL | MIC (PA-041, blaNDM; 5 at 4 mg/L): 2 µg/mL | MIC (PA-041, blaNDM; 5 at 8 mg/L): 2 µg/mL | MIC (PA-041, blaNDM; 5 at 16 mg/L): 2 µg/mL | MIC (PA-041, blaNDM; 5 at 32 mg/L): 1 µg/mL | MIC (PA-041, blaNDM; 5 at 64 mg/L): 1 µg/mL | Activity (FICI class) (PA-038, blaNDM; PA-038): S (S (Synergy, FICI ≤ 0.5)) | Concentrations of ATM and 5 at lowest FICI (ATM/5) (PA-038, blaNDM; PA-038): 4/8 | Lowest FICI (ATM/5) (PA-038, blaNDM; PA-038): 0.27 | Minimum concentration of 5 to make sensitive to ATM (PA-038, blaNDM; PA-038): 4 mg/L | Susceptibility to ATM (PA-038, blaNDM; PA-038, ATM/5): S (S (sensitive, MIC ≤ 8 mg/L)) | FD (fold decrease in MIC of ATM with 5) (PA-038, blaNDM; PA-038, lowest-FICI combination): 4 | MIC (PA-038, blaNDM; 5 at 1 mg/L): 16 µg/mL | MIC (PA-038, blaNDM; 5 at 2 mg/L): 16 µg/mL | MIC (PA-038, blaNDM; 5 at 4 mg/L): 8 µg/mL | MIC (PA-038, blaNDM; 5 at 8 mg/L): 4 µg/mL | MIC (PA-038, blaNDM; 5 at 16 mg/L): 4 µg/mL | MIC (PA-038, blaNDM; 5 at 32 mg/L): 4 µg/mL | MIC (PA-038, blaNDM; 5 at 64 mg/L): 4 µg/mL | Activity (FICI class) (PA-009, blaGES; PA-009): S (S (Synergy, FICI ≤ 0.5)) | Concentrations of ATM and 5 at lowest FICI (ATM/5) (PA-009, blaGES; PA-009): 8/8 | Lowest FICI (ATM/5) (PA-009, blaGES; PA-009): 0.28 | Minimum concentration of 5 to make sensitive to ATM (PA-009, blaGES; PA-009): 8 mg/L | Susceptibility to ATM (PA-009, blaGES; PA-009, ATM/5): S (S (sensitive, MIC ≤ 8 mg/L)) | FD (fold decrease in MIC of ATM with 5) (PA-009, blaGES; PA-009, lowest-FICI combination): 4 | MIC (PA-009, blaGES; 5 at 1 mg/L): 32 µg/mL | MIC (PA-009, blaGES; 5 at 2 mg/L): 16 µg/mL | MIC (PA-009, blaGES; 5 at 4 mg/L): 16 µg/mL | MIC (PA-009, blaGES; 5 at 8 mg/L): 8 µg/mL | MIC (PA-009, blaGES; 5 at 16 mg/L): 8 µg/mL | MIC (PA-009, blaGES; 5 at 32 mg/L): 4 µg/mL | MIC (PA-009, blaGES; 5 at 64 mg/L): 4 µg/mL | Diff. (ATM + 5, 24 h vs initial inoculum) (PA-002, blaIMP; ATM 1/2 MIC + 5 at 8 mg/L): 1.21 Log CFU/mL | Diff. (ATM + 5 vs ATM only) (PA-002, blaIMP; ATM 1/2 MIC + 5 at 8 mg/L): −2.36 Log CFU/mL | Synergistic activity, interpretation (PA-002, blaIMP; ATM 1/2 MIC + 5 at 8 mg/L): Synergy (a ≥ 2 log10 decrease in CFU/mL for the combination of ATM and 5 compared to ATM alone after 24 h of incubation) | Log CFU/mL, ATM + 5 (PA-002, blaIMP; ATM 1/2 MIC + 5 at 8 mg/L): 6.66 Log CFU/mL | Diff. (ATM + 5, 24 h vs initial inoculum) (PA-002, blaIMP; ATM 1/4 MIC + 5 at 8 mg/L): 2.26 Log CFU/mL | Diff. (ATM + 5 vs ATM only) (PA-002, blaIMP; ATM 1/4 MIC + 5 at 8 mg/L): −1.77 Log CFU/mL | Log CFU/mL, ATM + 5 (PA-002, blaIMP; ATM 1/4 MIC + 5 at 8 mg/L): 7.71 Log CFU/mL | Diff. (ATM + 5, 24 h vs initial inoculum) (PA-002, blaIMP; ATM 1 MIC + 5 at 8 mg/L): −2.42 Log CFU/mL | Diff. (ATM + 5 vs ATM only) (PA-002, blaIMP; ATM 1 MIC + 5 at 8 mg/L): −5.12 Log CFU/mL | Synergistic activity, interpretation (PA-002, blaIMP; ATM 1 MIC + 5 at 8 mg/L): Synergy (a ≥ 2 log10 decrease in CFU/mL for the combination of ATM and 5 compared to ATM alone after 24 h of incubation) | Log CFU/mL, ATM + 5 (PA-002, blaIMP; ATM 1 MIC + 5 at 8 mg/L): 3.03 Log CFU/mL | Diff. (ATM + 5, 24 h vs initial inoculum) (PA-002, blaIMP; ATM 2 MIC + 5 at 8 mg/L): −5.45 Log CFU/mL | Diff. (ATM + 5 vs ATM only) (PA-002, blaIMP; ATM 2 MIC + 5 at 8 mg/L): −5.5 Log CFU/mL | Synergistic activity, interpretation (PA-002, blaIMP; ATM 2 MIC + 5 at 8 mg/L): Synergy (a ≥ 2 log10 decrease in CFU/mL for the combination of ATM and 5 compared to ATM alone after 24 h of incubation) | Log CFU/mL, ATM + 5 (PA-002, blaIMP; ATM 2 MIC + 5 at 8 mg/L): 0.00 Log CFU/mL | Diff. (ATM + 5, 24 h vs initial inoculum) (PA-003, blaVIM): 4.11 Log CFU/mL
